Test system in one series: not listed separately
Kind of series: in vitro. The note with it: chlorocebus sabaeus, VERO-E6 cells (Vero C1008), uninfected, CC50.
One may read the CC50 as the concentration giving 50% cytotoxicity. The low end stands for harm at low concentration, the high end for better tolerance by the cells. Molecule `COc1ccc(-c2c[nH]c3nccc(-c4ccsc4)c23)c(OC)c1` gave a half-maximal cytotoxic concentration (CC50) at 48 h of 0.82 µM.

In turn, `Nc1nccc2c1ncn2[C@@H]1C=C(CO)[C@@H](O)[C@H]1O` came in with a CC50 at 48 h of 0.3 µM.

Regarding `N[C@H]1CC[C@H](N[C@@H]2C[C@H]2c2ccccc2)CC1`, the cytotoxic concentration (CC50) at 48 h is over 33 µM.

Take `CC[C@H](CC#N)OC(=O)N[C@@H](C)c1cccc(NC(=O)Nc2ccc(-c3cnco3)c(OC)c2)c1` [AVN-944]: half-maximal cytotoxicity (CC50 at 48 h) was put at 0.76 µM.

As for `Cc1nc2cnc3ccc(C#Cc4cccnc4)cc3c2n1-c1ccc(C(C)(C)C#N)cc1`, half-maximal cytotoxicity (CC50 at 48 h) was put at 0.11 µM.

Turning to `OCCCNc1cc(-c2ccnc(Nc3cccc(Cl)c3)n2)ccn1`, the CC50 at 48 h is 8.17 µM.

On to `CCS(=O)(=O)c1ccc(CC(=O)Nc2cc(Cl)c(-c3ccccc3OC(F)(F)F)c(Cl)c2)cc1`, for which the CC50 at 48 h was found to be 12.1 µM.

With `CNC(=O)Nc1ccc(-c2nc(N3CC4CCC(C3)O4)c3cnn(C4CCC5(CC4)OCCO5)c3n2)cc1`, the cytotoxic concentration (CC50) at 48 h was found to be 0.18 µM.

As to `Cc1[nH]c(/C=C2\C(=O)Nc3cc(-c4ccccc4)ccc32)c(C)c1CCC(=O)O`, it took 0.03 µM to reach half-maximal cytotoxicity (CC50 at 48 h).

On to `Cc1cc(O)c2c(=O)c3c(O)cc(O)c4c5c(O)cc(O)c6c(=O)c7c(O)cc(C)c8c1c2c(c34)c(c78)c65` [HYPERICIN], for which half-maximal cytotoxicity (CC50 at 48 h) was put at 1.31 µM.

`Nc1cc2c3ccccc3ccc2c2ccccc12` came in with a 50% cytotoxic concentration (CC50) at 48 h of over 33 µM.

`Cc1ccc(Oc2nc3cc(-c4ccc(-c5ccccc5)cc4)c(Cl)cc3[nH]2)cc1C(=O)O` gave a 50% cytotoxic concentration (CC50) at 48 h of 0.03 µM.

As for `CC(C)(C)c1cc(/C=C(\C#N)C(N)=S)cc(C(C)(C)C)c1O` [TYRPHOSTIN AG 879], the CC50 at 48 h was over 33 µM.

`O=C(O)c1ccc(N2C(=O)/C(=C/c3ccc(-c4ccc([N+](=O)[O-])cc4)o3)C=C2c2ccccc2)cc1` showed a 50% cytotoxic concentration (CC50) at 48 h of 12.8 µM.

Turning to `Nc1c[nH]c(=O)c2cc(-c3ccccc3)sc12`, the CC50 at 48 h was over 33 µM.

`CC[n+]1c(-c2ccccc2)c2cc(N)ccc2c2ccc(N)cc21` [HOMIDIUM] gave a half-maximal cytotoxic concentration (CC50) at 48 h of 2.04 µM.

On to `Nc1c(C(=O)NCc2ccco2)c2nc3ccccc3nc2n1CCN1CCCCC1`, for which the CC50 at 48 h was over 33 µM.

For the molecule `CC1=C(/C=C/C(C)=C/C=C/C(C)=C/C(=O)Nc2ccc(O)cc2)C(C)(C)CCC1` [FENRETINIDE], the CC50 at 48 h is 10.5 µM.

In turn, `C[C@@H](OC[C@@]1(c2ccccc2)CC[C@]2(CCC(=O)N2)CN1)c1cc(C(F)(F)F)cc(C(F)(F)F)c1` [ROLAPITANT] registered a CC50 at 48 h of over 33 µM.

The molecule `Cc1cc(N2C[C@@H](C)N[C@@H](C)C2)ncc1-c1ccc(-c2nc3c(ccn3C)c(=O)[nH]2)cc1` yielded a CC50 at 48 h of 7.14 µM.

For the molecule `CCN1CCN(Cc2ccc(-c3cc4c(N[C@H](C)c5ccccc5)ncnc4[nH]3)cc2)CC1` [AEE-788], the half-maximal cytotoxic concentration (CC50) at 48 h is over 33 µM.

Test system in a further series: not listed separately
Kind of series: in vitro. The settings on record: chlorocebus sabaeus, VERO-E6 cells, Selectivity index.
As to `COc1ccc(-c2c[nH]c3nccc(-c4ccsc4)c23)c(OC)c1`, the selectivity ratio came to 0.05.

As for `Nc1nccc2c1ncn2[C@@H]1C=C(CO)[C@@H](O)[C@H]1O`, the selectivity ratio stood at 0.14.

Consider `N[C@H]1CC[C@H](N[C@@H]2C[C@H]2c2ccccc2)CC1`, for which the selectivity ratio worked out at 1.

For `CC[C@H](CC#N)OC(=O)N[C@@H](C)c1cccc(NC(=O)Nc2ccc(-c3cnco3)c(OC)c2)c1` [AVN-944], the selectivity ratio amounted to 0.67.

For `Cc1nc2cnc3ccc(C#Cc4cccnc4)cc3c2n1-c1ccc(C(C)(C)C#N)cc1`, the selectivity ratio turned out to be 1.

On to `OCCCNc1cc(-c2ccnc(Nc3cccc(Cl)c3)n2)ccn1`, for which the selectivity ratio was found to be 1.03.

On to `CCS(=O)(=O)c1ccc(CC(=O)Nc2cc(Cl)c(-c3ccccc3OC(F)(F)F)c(Cl)c2)cc1`, for which the selectivity ratio stood at 0.58.

`CNC(=O)Nc1ccc(-c2nc(N3CC4CCC(C3)O4)c3cnn(C4CCC5(CC4)OCCO5)c3n2)cc1`: the selectivity ratio worked out at 0.01.

As for `Cc1[nH]c(/C=C2\C(=O)Nc3cc(-c4ccccc4)ccc32)c(C)c1CCC(=O)O`, the selectivity ratio stood at 0.01.

Turning to `Cc1cc(O)c2c(=O)c3c(O)cc(O)c4c5c(O)cc(O)c6c(=O)c7c(O)cc(C)c8c1c2c(c34)c(c78)c65` [HYPERICIN], the selectivity ratio was found to be 5.24.

The next series concerns SARS-CoV-2. Kind of series: microbe, parasite or virus in culture. The format is functional, organism-based, Chlorocebus sabaeus, Vero C1008. The settings on record: Severe acute respiratory syndrome coronavirus 2, Vero C1008, 48 h.
What is called IC50 is the concentration that gives 50% inhibition. Read a high IC50 as lower potency. As for `COc1ccc(-c2c[nH]c3nccc(-c4ccsc4)c23)c(OC)c1`, the IC50 is 15.8 µM.

In turn, `Nc1nccc2c1ncn2[C@@H]1C=C(CO)[C@@H](O)[C@H]1O` had an IC50 of 2.07 µM.

The molecule `N[C@H]1CC[C@H](N[C@@H]2C[C@H]2c2ccccc2)CC1` showed a concentration for half-maximal inhibition (IC50) of over 33 µM.

In turn, `CC[C@H](CC#N)OC(=O)N[C@@H](C)c1cccc(NC(=O)Nc2ccc(-c3cnco3)c(OC)c2)c1` [AVN-944] yielded an IC50 of 1.14 µM.

Consider `Cc1nc2cnc3ccc(C#Cc4cccnc4)cc3c2n1-c1ccc(C(C)(C)C#N)cc1`, for which half-maximal inhibition (IC50) required 0.11 µM.

As to `OCCCNc1cc(-c2ccnc(Nc3cccc(Cl)c3)n2)ccn1`, the half-maximal inhibitory concentration (IC50) is 7.9 µM.

Molecule `CCS(=O)(=O)c1ccc(CC(=O)Nc2cc(Cl)c(-c3ccccc3OC(F)(F)F)c(Cl)c2)cc1` displayed a half-maximal inhibitory concentration (IC50) of 21 µM.

Molecule `CNC(=O)Nc1ccc(-c2nc(N3CC4CCC(C3)O4)c3cnn(C4CCC5(CC4)OCCO5)c3n2)cc1` registered a 50% inhibitory concentration (IC50) of 21.6 µM.

With `Cc1[nH]c(/C=C2\C(=O)Nc3cc(-c4ccccc4)ccc32)c(C)c1CCC(=O)O`, it took 4.1 µM to reach half-maximal inhibition (IC50).

Molecule `Cc1cc(O)c2c(=O)c3c(O)cc(O)c4c5c(O)cc(O)c6c(=O)c7c(O)cc(C)c8c1c2c(c34)c(c78)c65` [HYPERICIN] yielded an IC50 of 0.25 µM.

`Nc1cc2c3ccccc3ccc2c2ccccc12` came in with an IC50 of 11.6 µM.

`Cc1ccc(Oc2nc3cc(-c4ccc(-c5ccccc5)cc4)c(Cl)cc3[nH]2)cc1C(=O)O` had an IC50 of over 33 µM.

The molecule `CC(C)(C)c1cc(/C=C(\C#N)C(N)=S)cc(C(C)(C)C)c1O` [TYRPHOSTIN AG 879] had an IC50 of over 33 µM.

On to `O=C(O)c1ccc(N2C(=O)/C(=C/c3ccc(-c4ccc([N+](=O)[O-])cc4)o3)C=C2c2ccccc2)cc1`, for which the IC50 was over 33 µM.

`Nc1c[nH]c(=O)c2cc(-c3ccccc3)sc12` displayed a concentration for half-maximal inhibition (IC50) of 5.26 µM.

The molecule `CC[n+]1c(-c2ccccc2)c2cc(N)ccc2c2ccc(N)cc21` [HOMIDIUM] had an IC50 of over 33 µM.

As to `Nc1c(C(=O)NCc2ccco2)c2nc3ccccc3nc2n1CCN1CCCCC1`, it took 31.2 µM to reach half-maximal inhibition (IC50).

`CC1=C(/C=C/C(C)=C/C=C/C(C)=C/C(=O)Nc2ccc(O)cc2)C(C)(C)CCC1` [FENRETINIDE] returned an IC50 of over 33 µM.

`C[C@@H](OC[C@@]1(c2ccccc2)CC[C@]2(CCC(=O)N2)CN1)c1cc(C(F)(F)F)cc(C(F)(F)F)c1` [ROLAPITANT] came in with a half-inhibitory concentration (IC50) of 19.6 µM.

In turn, `Cc1cc(N2C[C@@H](C)N[C@@H](C)C2)ncc1-c1ccc(-c2nc3c(ccn3C)c(=O)[nH]2)cc1` yielded an IC50 of over 33 µM.

As for `CCN1CCN(Cc2ccc(-c3cc4c(N[C@H](C)c5ccccc5)ncnc4[nH]3)cc2)CC1` [AEE-788], half-maximal inhibition (IC50) was put at 3.94 µM.

Source of the values: ChEMBL document CHEMBL4495565, “Cytopathic SARS-Cov2 screening on VERO-E6 cells in a large repurposing effort” (2020).
